Measured values as given in patent publication US7387997B2 (University of Utah, priority 2004, dated 2008).
Several values for one entry are separate records, joined by “and”; a condition that tells them apart may be missing. Equal entries are not always repeated. Entries after “also recorded” stand apart in the source; their conditions may differ. Where a SMILES comes first, the peptide text is derived from it. Bridges are numbered along the chain shown (N, C = ends).

What was measured:
rat α6β4 nAChR = biological target: T1, rat α6β4 nAChR (Rattus norvegicus, UniProt P12392+P43143); assay type: cell-based
T1 construct: expressed in transfected cells; host or cells: Xenopus laevis oocytes, cRNA injected (50 ng each)
T1 sequence (P43143 31-493): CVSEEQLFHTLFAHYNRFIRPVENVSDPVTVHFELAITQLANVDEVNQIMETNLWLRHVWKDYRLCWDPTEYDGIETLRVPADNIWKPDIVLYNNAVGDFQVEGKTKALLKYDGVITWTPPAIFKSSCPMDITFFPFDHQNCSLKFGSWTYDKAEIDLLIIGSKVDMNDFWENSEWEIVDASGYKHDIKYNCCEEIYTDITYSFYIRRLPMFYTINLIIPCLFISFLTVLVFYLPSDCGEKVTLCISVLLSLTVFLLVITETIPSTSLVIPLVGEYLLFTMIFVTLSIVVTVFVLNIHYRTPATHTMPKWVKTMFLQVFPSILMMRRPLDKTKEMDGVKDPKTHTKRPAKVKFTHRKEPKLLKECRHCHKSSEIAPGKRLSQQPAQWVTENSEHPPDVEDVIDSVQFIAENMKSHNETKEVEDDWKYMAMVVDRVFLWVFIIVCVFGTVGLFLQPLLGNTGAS
T1 sequence (P12392 21-495): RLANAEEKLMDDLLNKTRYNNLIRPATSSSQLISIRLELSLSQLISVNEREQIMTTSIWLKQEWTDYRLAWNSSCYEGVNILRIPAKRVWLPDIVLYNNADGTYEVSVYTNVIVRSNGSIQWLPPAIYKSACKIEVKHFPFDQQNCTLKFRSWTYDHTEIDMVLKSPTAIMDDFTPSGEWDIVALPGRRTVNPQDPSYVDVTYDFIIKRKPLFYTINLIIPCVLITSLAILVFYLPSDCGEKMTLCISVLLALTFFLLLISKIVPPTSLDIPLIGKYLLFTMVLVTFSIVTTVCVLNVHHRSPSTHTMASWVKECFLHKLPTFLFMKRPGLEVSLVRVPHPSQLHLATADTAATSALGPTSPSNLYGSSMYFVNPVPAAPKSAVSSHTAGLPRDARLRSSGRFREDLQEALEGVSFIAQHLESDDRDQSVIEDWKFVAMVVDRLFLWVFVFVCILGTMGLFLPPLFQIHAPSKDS

Rat α3β2 nAChR = biological target: T2, Rat α3β2 nAChR (Rattus norvegicus, UniProt P04757+P12390); assay: cell-based; assay type: cell-based
T2 construct: expressed in transfected cells; host or cells: Xenopus laevis oocytes, cRNA injected
T2 sequence (P04757 26-499 limits assumed): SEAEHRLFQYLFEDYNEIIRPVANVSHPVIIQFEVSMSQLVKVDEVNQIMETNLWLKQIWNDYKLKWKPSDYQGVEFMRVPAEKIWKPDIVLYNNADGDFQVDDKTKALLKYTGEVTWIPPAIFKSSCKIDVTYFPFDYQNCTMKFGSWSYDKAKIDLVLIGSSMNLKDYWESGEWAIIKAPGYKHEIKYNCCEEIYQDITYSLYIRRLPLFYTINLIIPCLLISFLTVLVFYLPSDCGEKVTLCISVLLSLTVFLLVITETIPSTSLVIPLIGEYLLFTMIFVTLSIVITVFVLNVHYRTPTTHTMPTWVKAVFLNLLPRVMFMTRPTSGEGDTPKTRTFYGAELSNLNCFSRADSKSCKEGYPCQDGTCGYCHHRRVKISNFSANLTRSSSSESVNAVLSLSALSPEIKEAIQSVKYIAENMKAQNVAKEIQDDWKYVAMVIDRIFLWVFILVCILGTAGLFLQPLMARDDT
T2 sequence (P12390 25-500 limits assumed): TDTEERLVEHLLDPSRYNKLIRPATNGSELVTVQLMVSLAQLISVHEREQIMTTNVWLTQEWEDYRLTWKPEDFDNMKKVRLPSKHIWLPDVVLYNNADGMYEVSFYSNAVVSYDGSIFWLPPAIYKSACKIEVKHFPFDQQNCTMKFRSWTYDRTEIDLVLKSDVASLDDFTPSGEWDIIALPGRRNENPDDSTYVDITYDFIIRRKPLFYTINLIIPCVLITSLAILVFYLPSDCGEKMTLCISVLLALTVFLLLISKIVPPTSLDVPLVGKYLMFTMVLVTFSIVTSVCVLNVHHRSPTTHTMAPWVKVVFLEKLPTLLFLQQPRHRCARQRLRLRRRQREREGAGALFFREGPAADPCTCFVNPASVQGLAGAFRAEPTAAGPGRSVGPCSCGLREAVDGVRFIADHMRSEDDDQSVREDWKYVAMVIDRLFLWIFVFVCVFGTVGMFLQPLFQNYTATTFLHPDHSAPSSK

[1] = biological target: Mouse CNS α-MII Site (putative α6β2* nAChRs); assay type: binding
α2β2 nAChR = biological target: T3, α2β2 nAChR (Rattus norvegicus, UniProt P12389+P12390); assay: cell-based; assay type: cell-based
T3 construct: expressed in transfected cells; host or cells: Xenopus laevis oocytes, cRNA injected
T3 sequence (P12389 28-511 limits assumed): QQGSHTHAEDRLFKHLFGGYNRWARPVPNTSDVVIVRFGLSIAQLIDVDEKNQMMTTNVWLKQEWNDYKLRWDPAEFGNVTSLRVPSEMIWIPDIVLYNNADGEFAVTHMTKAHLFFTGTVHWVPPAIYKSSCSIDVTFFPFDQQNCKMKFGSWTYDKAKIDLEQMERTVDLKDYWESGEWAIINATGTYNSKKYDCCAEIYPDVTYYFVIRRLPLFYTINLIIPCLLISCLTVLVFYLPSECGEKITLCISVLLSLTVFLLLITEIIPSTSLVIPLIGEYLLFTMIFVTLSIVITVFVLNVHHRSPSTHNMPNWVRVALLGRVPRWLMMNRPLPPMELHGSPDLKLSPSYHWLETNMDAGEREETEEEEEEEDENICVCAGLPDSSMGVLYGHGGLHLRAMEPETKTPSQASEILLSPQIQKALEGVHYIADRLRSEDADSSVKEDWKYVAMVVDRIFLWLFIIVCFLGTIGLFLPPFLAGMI
T3 sequence (P12390 25-500 limits assumed): as the sequence (P12390 25-500 limits assumed) above

α7 nAChR = biological target: T4, α7 nAChR (Rattus norvegicus, UniProt Q05941); assay: cell-based; assay type: cell-based
T4 construct: expressed in transfected cells; host or cells: Xenopus laevis oocytes, cRNA injected
T4 sequence (Q05941 23-502 limits assumed): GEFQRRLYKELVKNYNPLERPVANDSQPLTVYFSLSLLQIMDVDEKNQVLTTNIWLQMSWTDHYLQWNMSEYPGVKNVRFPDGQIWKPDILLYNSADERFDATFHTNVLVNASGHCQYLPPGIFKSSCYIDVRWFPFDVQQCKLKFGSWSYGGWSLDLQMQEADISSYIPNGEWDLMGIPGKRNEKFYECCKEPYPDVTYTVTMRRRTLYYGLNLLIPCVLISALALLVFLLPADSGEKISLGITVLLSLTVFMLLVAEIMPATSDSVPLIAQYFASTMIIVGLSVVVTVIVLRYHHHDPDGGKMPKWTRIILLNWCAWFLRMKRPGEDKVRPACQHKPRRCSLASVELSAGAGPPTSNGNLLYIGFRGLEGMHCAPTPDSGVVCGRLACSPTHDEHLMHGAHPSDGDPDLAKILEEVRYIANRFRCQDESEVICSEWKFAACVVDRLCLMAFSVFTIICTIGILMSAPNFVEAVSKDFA

α2β4 nAChR = biological target: T5, α2β4 nAChR (Rattus norvegicus, UniProt P12389+P12392); assay: cell-based; assay type: cell-based
T5 construct: expressed in transfected cells; host or cells: Xenopus laevis oocytes, cRNA injected
T5 sequence (P12389 28-511 limits assumed): as the sequence (P12389 28-511 limits assumed) above
T5 sequence (P12392 21-495 limits assumed): as the sequence (P12392 21-495) above

α4β4 nAChR = biological target: T6, α4β4 nAChR (Rattus norvegicus, UniProt P09483+P12392); assay: cell-based; assay type: cell-based
T6 construct: expressed in transfected cells; host or cells: Xenopus laevis oocytes, cRNA injected
T6 sequence (P09483 31-630 limits assumed): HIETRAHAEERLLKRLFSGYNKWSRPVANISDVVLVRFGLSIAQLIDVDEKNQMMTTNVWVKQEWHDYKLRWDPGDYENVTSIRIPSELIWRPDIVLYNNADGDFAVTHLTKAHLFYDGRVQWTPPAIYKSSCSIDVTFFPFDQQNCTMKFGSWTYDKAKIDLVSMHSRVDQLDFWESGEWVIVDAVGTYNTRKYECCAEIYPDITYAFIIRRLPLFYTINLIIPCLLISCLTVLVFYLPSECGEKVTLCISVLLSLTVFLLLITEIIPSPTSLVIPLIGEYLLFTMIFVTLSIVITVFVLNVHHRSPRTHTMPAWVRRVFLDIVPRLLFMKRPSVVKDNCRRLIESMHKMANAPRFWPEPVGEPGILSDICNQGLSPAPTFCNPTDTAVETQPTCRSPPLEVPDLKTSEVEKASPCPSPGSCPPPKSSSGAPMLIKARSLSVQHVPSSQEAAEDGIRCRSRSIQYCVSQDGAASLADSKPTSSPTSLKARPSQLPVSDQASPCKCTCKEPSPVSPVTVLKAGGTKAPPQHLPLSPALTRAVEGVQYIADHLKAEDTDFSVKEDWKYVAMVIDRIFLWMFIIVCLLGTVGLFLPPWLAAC
T6 sequence (P12392 21-495 limits assumed): as the sequence (P12392 21-495) above

rat α3β4 nAChR = biological target: T7, rat α3β4 nAChR (Rattus norvegicus, UniProt P04757+P12392); assay: cell-based; assay type: cell-based
T7 construct: expressed in transfected cells; host or cells: Xenopus laevis oocytes, cRNA injected
T7 sequence (P04757 26-499 limits assumed): as the sequence (P04757 26-499 limits assumed) above
T7 sequence (P12392 21-495 limits assumed): as the sequence (P12392 21-495) above

α4β2 nAChR = biological target: T8, α4β2 nAChR (Rattus norvegicus, UniProt P09483+P12390); assay type: cell-based
T8 construct: expressed in transfected cells; host or cells: Xenopus laevis oocytes, cRNA injected
T8 sequence (P09483 31-630 limits assumed): as the sequence (P09483 31-630 limits assumed) above
T8 sequence (P12390 25-500 limits assumed): as the sequence (P12390 25-500 limits assumed) above

α6/α3β4 nAChR = biological target: T9, α6/α3β4 nAChR (Rattus norvegicus, UniProt P04757+P12392+P43143); assay: cell-based
T9 construct: amino acids 1 to 237 of the rat α6 subunit protein; amino acids 233 to 499 of the rat α3 subunit protein; expressed in transfected cells; host or cells: Xenopus laevis oocytes, cRNA injected
T9 sequence (P43143 31-237 limits assumed): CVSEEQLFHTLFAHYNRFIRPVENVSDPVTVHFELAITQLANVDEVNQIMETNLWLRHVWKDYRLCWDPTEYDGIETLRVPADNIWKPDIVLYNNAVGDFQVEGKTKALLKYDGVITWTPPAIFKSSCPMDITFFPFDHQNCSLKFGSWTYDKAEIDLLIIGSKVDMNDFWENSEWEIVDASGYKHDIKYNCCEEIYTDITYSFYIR
T9 sequence (P04757 233-499 limits assumed): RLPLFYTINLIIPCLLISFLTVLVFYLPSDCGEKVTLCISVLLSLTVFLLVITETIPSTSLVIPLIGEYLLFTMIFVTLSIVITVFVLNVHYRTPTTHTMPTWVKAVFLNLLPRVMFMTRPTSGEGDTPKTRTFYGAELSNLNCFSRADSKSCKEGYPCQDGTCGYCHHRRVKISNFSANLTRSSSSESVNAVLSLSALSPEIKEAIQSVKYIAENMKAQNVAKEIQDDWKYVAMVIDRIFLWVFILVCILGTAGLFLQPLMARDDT
T9 sequence (P12392 21-495): as the sequence (P12392 21-495) above

Rat α6/α3β2β3 nAChR = biological target: T10, Rat α6/α3β2β3 nAChR (Rattus norvegicus, UniProt P04757+P12390+P43143); assay: cell-based; assay type: cell-based
T10 construct: amino acids 1 to 237 of the rat α6 subunit protein; amino acids 233 to 499 of the rat α3 subunit protein; expressed in transfected cells; host or cells: Xenopus laevis oocytes, cRNA injected (pT7TS/rα6α3 for the chimera)
T10 sequence (P43143 31-237 limits assumed): as the sequence (P43143 31-237 limits assumed) above
T10 sequence (P04757 233-499 limits assumed): as the sequence (P04757 233-499 limits assumed) above
T10 sequence (P12390 25-500 limits assumed): as the sequence (P12390 25-500 limits assumed) above

α6/α3β2 nAChR = biological target: T11, α6/α3β2 nAChR (Rattus norvegicus, UniProt P04757+P12390+P43143); assay: cell-based
T11 construct: amino acids 1 to 237 of the rat α6 subunit protein; amino acids 233 to 499 of the rat α3 subunit protein; expressed in transfected cells; host or cells: Xenopus laevis oocytes, cRNA injected
T11 sequence (P43143 31-237 limits assumed): as the sequence (P43143 31-237 limits assumed) above
T11 sequence (P04757 233-499 limits assumed): as the sequence (P04757 233-499 limits assumed) above
T11 sequence (P12390 25-500 limits assumed): as the sequence (P12390 25-500 limits assumed) above

CC(C)C[C@@H]1NC(=O)[C@H](C)NC(=O)[C@@H]2CSSC[C@H](NC(=O)CN)C(=O)N[C@@H](CSSC[C@@H](C(N)=O)NC(=O)[C@H](C)NC(=O)[C@H](CC(N)=O)NC(=O)[C@H](CO)NC(=O)[C@H](Cc3c[nH]cn3)NC(=O)[C@H](CCC(=O)O)NC1=O)C(=O)N[C@@H](CO)C(=O)N[C@@H](CC(N)=O)C(=O)N1CCC[C@H]1C(=O)N[C@@H](C(C)C)C(=O)N2 [MII[H9A; L15A]] (H-GCCSNPVCALEHSNAC-NH2; disulfide 2-8, 3-16)
Hill slope (nH), α6β4 (rat α6β4 nAChR): 0.60±0.09
Hill slope, α3β2 (Rat α3β2 nAChR): 0.48±0.04
Ki [1]: 3.3 nM
ACh response, percentage of control, Rα2β2 (α2β2 nAChR): 102 ± 1.4 % of control and 103 ± 1.9 % of control
activity at α2β2 (in words) (α2β2 nAChR): low or no activity; also recorded: little or no activity
ACh response, percentage of control, Rα7 (α7 nAChR): 61.4 ± 2.3 % of control and 100 ± 1.5 % of control
activity at α7 (in words) (α7 nAChR): low or no activity; also recorded: little or no activity
ACh response, percentage of control, Rα2β4 (α2β4 nAChR): 96.7 ± 3.2 % of control and 95.9 ± 2.3 % of control
activity at α2β4 (in words) (α2β4 nAChR): low or no activity; also recorded: little or no activity
ACh response, percentage of control, Rα4β4 (α4β4 nAChR): 99.0 ± 4.0 % of control and 100 ± 5.6 % of control
activity at α4β4 (in words) (α4β4 nAChR): low or no activity; also recorded: little or no activity
Hill slope (nH), α3β4 (rat α3β4 nAChR): 0.75±0.1
activity at α3β4 (in words) (rat α3β4 nAChR): low or no activity; also recorded: little or no activity
ACh response, percentage of control, Rα4β2 (α4β2 nAChR): 98.5 ± 4.4 % of control and 101 ± 2.5 % of control
activity at α4β2 (in words) (α4β2 nAChR): low or no activity; also recorded: little or no activity

CC(C)C[C@@H]1NC(=O)[C@H](Cc2c[nH]cn2)NC(=O)[C@@H]2CSSC[C@H](NC(=O)CN)C(=O)N[C@@H](CSSC[C@@H](C(N)=O)NC(=O)[C@H](CC(C)C)NC(=O)[C@H](CC(N)=O)NC(=O)[C@H](CO)NC(=O)[C@H](Cc3c[nH]cn3)NC(=O)[C@H](C)NC1=O)C(=O)N[C@@H](CO)C(=O)N[C@@H](CC(N)=O)C(=O)N1CCC[C@H]1C(=O)N[C@@H](C(C)C)C(=O)N2 [MII[E11A]] (H-GCCSNPVCHLAHSNLC-NH2; disulfide 2-8, 3-16)
IC50 (Rat α3β2 nAChR): 8.72 nM
Ratio IC50 α3β2/IC50 α6/α3β2β3 (Rat α3β2 nAChR): 54.5
IC50 (α6/α3β4 nAChR): 6.44 nM
Ratio nAChR subtype IC50/α6/α3β2β3 IC50, α6/α3β4 (α6/α3β4 nAChR): 40.3
Ki [1]: 0.27 nM
IC50 (α2β2 nAChR): > 10000 nM
Ratio nAChR subtype IC50/α6/α3β2β3 IC50, α2β2 (α2β2 nAChR): >62,500
IC50 (α7 nAChR): 1050 nM
Ratio nAChR subtype IC50/α6/α3β2β3 IC50, α7 (α7 nAChR): 6,570
IC50 (α2β4 nAChR): > 10000 nM
Ratio nAChR subtype IC50/α6/α3β2β3 IC50, α2β4 (α2β4 nAChR): >62,500
IC50 (α4β4 nAChR): > 10000 nM
Ratio nAChR subtype IC50/α6/α3β2β3 IC50, α4β4 (α4β4 nAChR): >62,500
IC50 (Rat α6/α3β2β3 nAChR): 0.16 nM
Ratio nAChR subtype IC50/α6/α3β2β3 IC50, α6/α3β2β3 (Rat α6/α3β2β3 nAChR): 1.00
IC50 (rat α3β4 nAChR): 2100 nM
Ratio nAChR subtype IC50/α6/α3β2β3 IC50, α3β4 (rat α3β4 nAChR): 13,100
IC50 (α6/α3β2 nAChR): 0.154 nM
Ratio nAChR subtype IC50/α6/α3β2β3 IC50, α6/α3β2 (α6/α3β2 nAChR): 0.962
